One data set deals with S. aureus strain USA300. Kind of data set: MIC by broth microdilution (CLSI), strain USA300. Type of data set: cell-based. As to conditions: Staphylococcus aureus; USA300 (MRSA), Mueller–Hinton broth. How it is done:
(§1) Community-acquired MRSA (CA-MRSA) strain USA300, its isogenic agr mutant,[17] the hospital-acquired MRSA (HA-MRSA) strain BH1CC,[18] the HA-MSSA strain BH48[19] and the MSSA strain SH1000[20] were cultured in Mueller–Hinton broth for susceptibility testing or in RPMI-1640 (Gibco) for biofilm formation. For the rat jugular vein catheter infection model, the S. aureus strain USA300 (LAC) lux[21] was used.
(§2) 5HE-C14-TMA and C14-TOA were synthesized as described previously[9] and C14-TTA as described in the Supplementary data available at JAC Online. Stock solutions of the compounds in DMSO at 10–50 mM were further diluted into tissue culture media or sodium chloride for the in vivo experiments. A DMSO solvent control was used in all in vitro experiments. The following antibiotics were used: vancomycin (Vancocin; Flynn Pharma Ltd., Republic of Ireland), daptomycin (Cubicin; Novartis, UK), gentamicin (Hospira, UK) and tigecycline (Tygacil; Pfizer Inc.). MICs were determined by broth microdilution in Mueller–Hinton broth, as recommended by the CLSI.
For orientation: Broth dilution looks for growth in wells or tubes with falling amounts of substance.

In another data set the test system is S. aureus strain BH1CC. Kind of data set: MIC by broth microdilution (CLSI), strain BH1CC. It counts as cell-based. As to conditions: Staphylococcus aureus; BH1CC (MRSA), Mueller–Hinton broth. The method, then:
as §1, §2

The test system of the next data set is S. aureus strain SH1000. Kind of data set: MIC by broth microdilution (CLSI), strain SH1000. It counts as cell-based. To be noted: Staphylococcus aureus; SH1000 (MSSA), Mueller–Hinton broth. How it is done:
as §1, §2

The test system of data set [1] is S. aureus transmembrane potential. Kind of data set: Dissipation of bacterial membrane potential, DiSC3(5) fluorescence. Type of data set: cell-based, Staphylococcus aureus. To be noted: 30 μM. The method, then: Transmembrane potential was determined as described by Breeuwer and Abee[23] Staphylococcal cells were resuspended in potassium phosphate buffer (50 mM, pH 7) containing 5 μM of the cationic fluorescent dye DiSC3(5) (Invitrogen) and fluorescence determined (excitation 650 nm, emission 680 nm).

The next data set has as its system S. aureus biofilms. Kind of data set: Biofilm susceptibility, resazurin-conversion assay on plasma-coated wells. It counts as cell-based, Staphylococcus aureus. The method, then: (§3) Biofilms were formed as previously described to mimic in vivo conditions that promote formation of coagulase-mediated biofilms.[16] Briefly, microtitre plates or glass-bottom culture dishes (MaTek Co., USA) were coated with either 20% (v/v) or 100% (v/v) human plasma, respectively, and inoculated with S. aureus at an OD600 ∼0.2. After 1 h, non-adherent bacteria were aspirated, replaced with fresh RPMI-1640 and biofilms allowed to form over 24 h at 37 °C. Pre-formed biofilms were treated for 24 h with either 5HE-C14-TMA, C14-TOA or C14-TTA or a positive control [ethanol at 40% (v/v)]. Biofilm viability was measured by (i) resazurin-conversion assay (in microtitre wells), or (ii) live/dead imaging (glass-bottom dishes). Conversion of the non-fluorescent redox dye, resazurin into the fluorescent resorufin was performed as described previously.[16] A 44 μM resazurin (Sigma-Aldrich, UK) solution in RPMI-1640 was added to an equal biofilm volume and incubated for 1 h at 37 °C. Fluorescence (excitation 544 nm, emission 590 nm) was quantified using a Perkin Elmer 2030 Multilabel Reader Victor^TM X3. Biofilms were stained with SYTO9 Green (at 13.36 μM) and propidium iodide (at 80 μM) (Molecular Probes®) for 1 h prior to washing. Four representative images at ×40 and ×100 were obtained per experimental group, per experiment using a Zeiss LSM 510 META confocal microscope. Each experiment was repeated at least three times. Fluorescence intensity was quantified using Image J1 software (http://imagej.net/Welcome).

The subject of data set [2] is S. aureus USA300 and SH1000 biofilms. The experiment in a line: Biofilm viability by live/dead imaging. To be noted: 128 mg/L, 24 h, both strains (USA300 MRSA and SH1000 MSSA), live/dead staining. It counts as cell-based, Staphylococcus aureus. The method, then:
as §3, with “Four representative images at ×40 and ×100 were obtained per experimental group, per experiment using a Zeiss LSM 510 META confocal microscope. Each experiment was repeated at least three times.” left out

Data set [3] in a line: MTT cell viability assay, HaCaT. As to conditions: human, HaCaT keratinocyte cells; HaCaT, MTT, 24 h. Type of data set: cell-based, Human. How it is done:
(§4) Human keratinocyte (HaCaT) cells were cultured in DMEM supplemented with 10% (v/v) FBS. Primary human umbilical vein endothelial cells (HUVECs) were cultured in EGM™-2 Bulletkit (Lonza) medium. HaCaT and HUVECs were harvested using TrypLE^TM Express (Gibco). Cells were seeded in microtitre plates at 3 × 10^5 cells/mL and incubated for 24 h at 37 °C with an antimicrobial compound ([…]) or Triton X100 at 1% (v/v). After removing the medium, cells were incubated with 500 mg/L MTT (Sigma-Aldrich) for 4 h. The crystals formed were solubilized with DMSO. Absorbance was recorded at 560 nm and the CC50 was determined.
On the technique in general: Tetrazolium assays rely on reduction of a dye to a coloured formazan, in cell work by metabolically active cells.

The test system of data set [4] is Human keratinocyte (HaCaT) cells. The experiment in a line: MTT cell viability assay, HaCaT. Type of data set: cell-based. To be noted: HaCaT cells. The method, then: as §4
A short description of the next data set: Haemolysis assay. To be noted: red blood cells; human RBC; read-out: CC50 (haemolytic activity). It counts as cell-based. The method, then:
Human blood containing EDTA (1.6 g/L) was centrifuged at 1000 g for 5 min. Red blood cells (RBC) were washed twice with PBS, diluted 2-fold and incubated with compounds or Triton X100 (positive control) at 0.5% (v/v). A570 was determined to quantify haemolysis. IC50s were derived from the corresponding dose–response curves.

Data set [5] concerns IL-8 and TNF-α release in human blood. Type of data set: cell-based. How it is done: EDTA-treated human blood was incubated in microtitre wells containing either S. aureus USA300 biofilm, 5HE-C14-TMA (at 256 mg/L) only or biofilm with 5HE-C14-TMA (at 256 mg/L) and incubated for 2 h at 37 °C. Plasma samples were collected by centrifugation (1000 g) and assayed for human cytokines using a Bio-Plex 200 (Bio-Rad). A standard curve was employed to maximize sensitivity for samples containing low cytokine levels. At least three different donor blood samples (with three replicates for each) were used.

Another data set is described as follows: Iron chelation. Type of data set: physicochemical. As to conditions: data not shown.
The test system of a further data set is S. aureus. As to conditions: cited from earlier work.
Data set [6] concerns agr quorum sensing system. On the set-up: method as in PMID 24592914. As to conditions: S. aureus; cited from earlier work.
The test system of a further data set is staphylococcal membrane. Set-up: method as in PMID 24592914. As to conditions: binding to the staphylococcal membrane, single site model; cited from earlier work.
The mark [7] stands for this setting: 256 mg/L for 2 h, sub-bactericidal dose.

Molecules are shown by their SMILES. Converted amounts (≈) assume the structure as drawn. “And” between values parts separate entries of the source, which are not always exact repeats. Equal values may be shown once. Bounds are passed on as bounds.

We go through one compound from article PMC5400099, “5-Hydroxyethyl-3-tetradecanoyltetramic acid represents a novel treatment for intravascular catheter infections due to Staphylococcus aureus” (Journal of Antimicrobial Chemotherapy, 2016).

By MIC is commonly meant the least concentration at which growth counts as inhibited. As usually defined, the CC50 is the concentration giving 50% cytotoxicity. As usually defined, the IC50 is the concentration that gives 50% inhibition. For orientation: Kd means a measure of binding affinity in units of concentration. In the case of `CCCCCCCCCCCCCC(=O)C1=C(O)N[C@@H](CCO)C1=O` [5HE-C14-TMA, 5-hydroxyethyl-3-tetradecanoyltetramic acid], the minimum inhibitory concentration (MIC) with S. aureus strain USA300 is 6.25 µM and 2 µg/mL; against S. aureus strain BH1CC, 6.25 µM and 2 µg/mL; with S. aureus strain SH1000, 6.25 µM and 2 µg/mL; in the data set with S. aureus (towards S. aureus), 12.5 µM (≈ 4.42 µg/mL). The “Membrane depolarization (DiSC3(5) fluorescence)” value in [1] was “increase in fluorescence, indicative of membrane depolarization”. Also, in the data set with S. aureus biofilms (1024 mg/L, 24 h treatment, depending on the strain, resazurin), the “Reduction of biofilm viability” value was 7–20 fold. The “Concentration giving complete killing / eradication of S. aureus biofilms” value in the data set with S. aureus biofilms (MRSA and MSSA biofilms) was 512 to 1024 mg/L. Besides, the Biofilm killing in data set [2] is more than 50%. For the same compound, the CC50 at 24 h in data set [3] is 181 µM and 64 µg/mL. Further, the “Selectivity index (SI, CC50/MIC)” value in data set [4] was 32. Also, in “Haemolysis assay”, the CC50 was 246 µM and 87 µg/mL. Further, in data set [5] (setting [7]), the “IL-8 level in blood exposed to USA300 biofilm with compound” value is listed as “substantial reductions”. For the same compound, the “TNF-α level in blood exposed to USA300 biofilm with compound” value in [5] (setting [7]) is on record as “substantial reductions”. Also, in data set [5] (256 mg/L, 2 h, no biofilm), the “Cytokine levels in whole human blood, agent only” value is “no increase in cytokine levels”. Moreover, in data set [5] (same dose (256 mg/L), agr mutant biofilm), the “IL-8 and TNF-α levels in response to USA300 agr mutant biofilm with compound” value was “no further effect”. The Iron chelation entry in “Iron chelation” is listed as “is an iron chelator”. Further, the “Increase in growth inhibitory activity relative to 5HE-C10-TMA” value in the data set with S. aureus (planktonic S. aureus) is recorded as 8 fold. In data set [6], the IC50 was 14 µM. Also, in the data set with staphylococcal membrane, the equilibrium dissociation constant (Kd) was 4 µM.
